These results are taken from patent US4310590A (priority 1979, dated 1982).

Experiment [1] concerns Piricularia oryzae. The experiment can be described thus: whole plant or invertebrate. To be noted: for Disease Control Level, RB: 150 ppm. The class given is in vivo.
In experiment [2] the test system is Helminthosporium teres. The experiment is described as follows: whole plant or invertebrate. The class given is in vivo. To be noted: Pyrenophora teres, in Hordeum vulgare, read-out: Disease Control Level, BH.
Experiment [3] concerns Plasmopora viticola. The experiment is described as follows: whole plant or invertebrate. The class given is in vivo.
The subject of experiment [4] is Rhizopus stolonifer. The experiment is described as follows: Serial Dilution Test (Broth Titer Test), antifungal, Rhizopus stolonifer. It is filed as cell-based. To be noted: in vitro serial dilution test, R = Rhizopus stolonifer; for MIC: read-out: SDT, MIC. As for the experimental part: (§1) Antibacterial and antifungal activity were evaluated by the Serial Dilution Test (Broth Titer Test) wherein a series of broths containing varying dilutions of a test compound and an organism are halved starting with 1:1,000. The values shown represent the maximum dilution in parts per million at which the compound under evaluation renders complete control of the organism. Pseudomonas aeruginosa (P), Staphylococcus aureus (S), and Escherichia coli (E) were the bacterial organisms employed in this test, and the fungi employed were Aspergillus niger (A) and Rhizopus stolonifer (R).
(§2) ^a In vitro serial dilution test (SDT), minimum inhibitory
(§3) concentrations (MIC) against E = E. coli, P = Ps. aeruginosa, S =
(§4) Staphylococcus aureus, A = A. niger, and R = Rhizopus stolonifer are give
(§5) in parts per million of a biocide.

In experiment [5] the test system is Botrytis cinerea. The experiment can be described thus: whole plant or invertebrate. It is filed as in vivo. Conditions: for Disease Control Level, BOT: 150 ppm.
For experiment [6], the system named is A. niger. The experiment is described as follows: Serial Dilution Test (Broth Titer Test), antifungal, A. niger. It is filed as cell-based, Aspergillus niger. To be noted: in vitro serial dilution test; for MIC: Aspergillus niger, read-out: SDT, MIC. As for the experimental part: as §1, §2, §3, §4, §5
Experiment [7] relates to Puccinia graminis f. sp. tritici. The experiment can be described thus: whole plant or invertebrate. It is filed as in vivo, Puccinia graminis f. sp. tritici race 15B-2. To be noted: for Disease Control Level, WSR: 150 ppm, wheat seedlings.
The subject of experiment [8] is E. coli. The experiment is described as follows: Serial Dilution Test (Broth Titer Test), antibacterial, E. coli. The class given is cell-based, Escherichia coli. To be noted: for MIC: Escherichia coli, read-out: SDT, MIC; for SDT, MIC: in vitro serial dilution test, E = E. coli. As for the experimental part: as §1, §2, §3, §4, §5
Experiment [9] concerns Erysiphe polygoni. The experiment can be described thus: whole plant or invertebrate. The class given is in vivo. Conditions: read-out: Disease Control Level, BPM.
For experiment [10], the system named is Staphylococcus aureus. The experiment can be described thus: Serial Dilution Test (Broth Titer Test), antibacterial, Staphylococcus aureus. The class given is cell-based. Conditions: for MIC: Staphylococcus aureus, read-out: SDT, MIC; for SDT, MIC: in vitro serial dilution test, S = Staphylococcus aureus. As for the experimental part:
as §1, §2, §3, §4, §5

Experiment [11] has as its system Ps. aeruginosa. The experiment is described as follows: Serial Dilution Test (Broth Titer Test), antibacterial, Ps. aeruginosa. It is filed as cell-based, Pseudomonas aeruginosa. To be noted: for MIC: Pseudomonas aeruginosa, read-out: SDT, MIC; for SDT, MIC: in vitro serial dilution test, P = Ps. aeruginosa. How it is done:
as §1, §2, §3, §4, §5

In experiment [12] the test system is Phytophthora infestans. The experiment is described as follows: whole plant or invertebrate. The class given is in vivo. To be noted: Phytophthora infestans, in Solanum lycopersicum, read-out: Disease Control Level, TLB.
Setting [13] is: Pyricularia oryzae, read-out: Disease Control Level, RB.
The mark [14] stands for this setting: read-out: Disease Control Level, GDM.
[15] abbreviates: Botrytis cinerea, read-out: Disease Control Level, BOT.
The mark [16] stands for this setting: Puccinia graminis, read-out: Disease Control Level, WSR.

Converted amounts (≈) assume the structure as drawn.

A word on the MIC: it is the least concentration at which growth counts as inhibited. As for `O=c1cc(N2CCCCC2)sn1CCc1ccccc1` [Example 14, 5-Piperidino-2-phenethyl-4-isothiazolin-3-one], the “Disease Control Level, RB” value in experiment [1] is recorded as “A/E”. The pest or weed control at 38 ppm in experiment [1] (setting [13]) and in [7] (setting [16]) was 50% throughout. Also, the figures for the pest or weed control at 75 ppm in experiment [1] (setting [13]) and in experiment [7] (setting [16]) were 97 to 100% and 50%, respectively. The pest or weed control at 300 ppm in experiment [1] (setting [13]) is 97 to 100%; in experiment [2], 50%; in experiment [3] (setting [14]) it was 50%; in [5] (setting [15]) it was 50%; in [7] (setting [16]) it was 97 to 100%; in experiment [9], 50%. The pest or weed control at 300 ppm in experiment [12] came out at 50%. The minimum inhibitory concentration (MIC) in experiment [4] worked out at 125 mg/L (≈ 433 µM); in experiment [6], 250 mg/L (≈ 867 µM); in experiment [8], 500 mg/L (≈ 1730 µM); in [10], 500 mg/L (≈ 1730 µM); in experiment [11] it was 500 mg/L (≈ 1730 µM). Further, the pest or weed control at 150 ppm in experiment [7] (setting [16]) was found to be 50%.
For the compound `Cc1c(SC(=S)N(C)C)sn(-c2ccc(Cl)cc2Cl)c1=O` [Example 10], the “SDT, MIC” value in experiment [4] came to 250 PPM; in [6], 500 PPM; in experiment [8], 500 PPM; in experiment [10], 500 PPM; in experiment [11] it was 500 PPM.
As for `Cc1c(SC(=S)N(C)C)sn(C2CCCCC2)c1=O` [Example 11], the pest or weed control at 300 ppm in experiment [1] (setting [13]) was 50%; in [2], 50%; in [3] (setting [14]), 50%; in experiment [5] (setting [15]) it was 50%; in experiment [7] (setting [16]), 70 to 89%; in [9] it was 50%. For the same compound, in experiment [12], the pest or weed control at 300 ppm was determined as 50%. For the same compound, the MIC in [4] was 250 mg/L (≈ 790 µM); in [6] it was 500 mg/L (≈ 1580 µM); in experiment [8] it was 500 mg/L (≈ 1580 µM); in experiment [10], 500 mg/L (≈ 1580 µM); in [11] it was 500 mg/L (≈ 1580 µM).
Turning to `CN(C)C(=S)Sc1cc(=O)n(C)s1` [Example 5], in experiment [1], the “Disease Control Level, RB” value is recorded as “A/E”. Besides, the pest or weed control at 19 ppm was 97 to 100% in experiment [1] (setting [13]) and 50% in [2] (19 ppm). The pest or weed control at 38 ppm in [1] (setting [13]) was 97 to 100%; in [2] (38 ppm), 50%; in experiment [3] (38 ppm, read-out: Disease Control Level, GDM) it was 97 to 100%; in experiment [5] (Botrytis cinerea, 38 ppm, read-out: Disease Control Level, BOT), 90 to 96%. In addition, the pest or weed control at 75 ppm in experiment [1] (setting [13]) was 97 to 100%; in experiment [2] (75 ppm), 50%; in experiment [3] (75 ppm, read-out: Disease Control Level, GDM), 97 to 100%; in [5] (Botrytis cinerea, 75 ppm, read-out: Disease Control Level, BOT), 97 to 100%; in experiment [7] (setting [16]), 50%. Besides, the pest or weed control at 150 ppm in [2] (150 ppm) turned out to be 50%. In addition, the pest or weed control at 300 ppm in experiment [2] is 97 to 100%; in [3] (setting [14]) it was 90 to 96%; in experiment [5] (setting [15]), 90 to 96%; in experiment [7] (setting [16]) it was 90 to 96%; in experiment [9] it was 50%; in experiment [12] it was 50%. Moreover, the “Disease Control Level, GDM” value in [3] (19 ppm) is “C/E”; in [3] (150 ppm) it was “A/A”. Besides, the “Disease Control Level, BOT” value in experiment [5] is listed as “A/C”. Moreover, the minimum inhibitory concentration (MIC) is 125 mg/L (≈ 533 µM) in experiment [6], 500 mg/L (≈ 2130 µM) in experiment [8] and above 500 mg/L in [11]. Also, the “Disease Control Level, WSR” value in experiment [7] is “C/E”.
In the case of `Cc1c(SC(=S)N(C)C)sn(-c2ccc(Cl)cc2)c1=O` [Example 9], the “Disease Control Level, RB” value in experiment [1] is listed as “A/A”. For the same compound, the “Disease Control Level, GDM” value in experiment [3] (150 ppm) is “A/E”. The “SDT, MIC” value in experiment [4] is 250 PPM; in [6] it was 500 PPM; in [8], 500 PPM; in experiment [10], 500 PPM; in experiment [11], 500 PPM. For the same compound, the “Disease Control Level, BOT” value in experiment [5] is “C/C”.
For `Cc1c(SC(=S)N(C)C)sn(-c2ccc(Br)cc2)c1=O` [Example 8], in experiment [1], the “Disease Control Level, RB” value is listed as “A/E”. For the same compound, in experiment [3] (150 ppm), the “Disease Control Level, GDM” value is “A/B”. The “SDT, MIC” value in experiment [4] was 250 PPM; in experiment [6], 500 PPM; in [8], 500 PPM; in experiment [10] it was 500 PPM; in experiment [11], 500 PPM. In addition, the “Disease Control Level, WSR” value in [7] is recorded as “C/C”.
